Data on eleven compounds can be found in patent US11542259B2, “Compounds for the treatment of kinase-dependent disorders” (Exelixis, Inc., priority 2018, dated 2023).

Assay [1] concerns the target AXL (Homo sapiens (Human), UniProt P30530). The experiment in a line: AXL autophosphorylation ELISA in A-172 cells. Type of assay: cell-based. Conditions: cellular, Gas6 stimulated. In outline:
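Serum-starved (24 h) A-172 glioblastoma cells pretreated 1 h with compounds (8-point curve, 0.3% DMSO), then stimulated 15 min with 1 μg/mL Gas6. Lysate phospho-AXL measured by sandwich ELISA against a phospho-AXL standard; IC50 from 4-parameter logistic fit between DMSO and reference-inhibitor controls.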
A general note: ELISA stands for enzyme-linked immunosorbent assay.

For assay [2], the target named is Mer (Homo sapiens (Human), UniProt Q12866). The assay can be described thus: Mer autophosphorylation ELISA in transient transfected 293A cells. Type of assay: cell-based. Particulars: cellular, MERTK transfected 293A cells. The protocol:
293A cells (Thermo Fisher #R70507) were seeded at 1.5×10^6 cells/well onto 100 mm dish (Greiner #664169), in DMEM (Thermo Fisher #11995-040) containing 10% FBS (Thermo Fisher #26140-079), 1% MEM NEAA (Thermo Fisher #11140-050), 1% GlutaMax (Thermo Fisher #35050-061), and 1% Penicillin Streptomycin (Thermo Fisher #15140-122). 293A cells were incubated at 37° C., 5% CO2 for 24 h and then transfected with 6 μg MERTK DNA (Genecopoeia #EX-Z8208-M02) using TransIT LT1 transfection reagent (Mirus-Bio #MIR2305). After 24 h incubation, the transfected 293A cells were seeded at 1×10^5 cells/well onto 96-well plates (Corning #3904) in DMEM growth medium overnight. Test compounds were serially diluted to produce an 8-point dose curve in fresh serum-free medium to a final concentration of 0.3% DMSO (vehicle) and added to the cells and incubated for 1 h. Cells were then immediately lysed with 150 μL of cold 1× lysis buffer [20 mM Tris, 137 mM sodium chloride, 2 mM EDTA, 10% glycerol, 1% NP-40 alternative, 1 mM activated sodium orthovanadate, 1 mM PefaBloc SC (Sigma-Aldrich #11429868001), protease/phosphatase inhibitor tablet (Thermo Fisher #A32959)]. Lysates were clarified by centrifugation and 50 μL/well added into the human phospho-Mer DuoSet IC ELISA (R&D Systems #DYC2579-2). Assay was performed according to manufacturer's instructions and sample phospho-Mer concentrations were extrapolated using human phospho-Mer control (R&D Systems #841793) as a standard. Positive control wells (100% activity) contained DMSO-treated cell lysates. Negative control wells (0% activity) contained reference inhibitor-treated cell lysates. IC50 values were calculated by nonlinear regression analysis using a 4-parameter logistic curve fit in ActivityBase XE (IDBS).

The target in assay [3] is Met (Homo sapiens (Human), UniProt P08581). The experiment in a line: Met autophosphorylation ELISA in PC-3 cells. Particulars: cellular, HGF stimulated, read-out: c-Met IC50. Type of assay: cell-based. In outline: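 Phospho-Met (panTyr) sandwich ELISA on lysates of PC-3 cells given 100 ng/mL HGF for 10 min after 1 h compound exposure (8-point curve, 0.3% DMSO) following 3 h serum starvation. Normalised to HGF-stimulated DMSO and reference-inhibitor wells; 4-parameter logistic IC50.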

Assay [4] has as its target KDR (Homo sapiens (Human), UniProt P35968). The experiment in a line: KDR autophosphorylation ELISA in HUVEC cells. Type of assay: cell-based. Particulars: cellular, VEGF165 stimulated. Summed up:
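Phospho-KDR levels in lysates were measured by ELISA and referenced to stimulated-vehicle (100%) and unstimulated (0%) wells, IC50 from 4-parameter logistic fit. HUVEC, starved 24 h in serum-free medium, received an 8-point compound series (0.3% DMSO) for 1 h before a 5 min 100 ng/mL VEGF165 challenge.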

Assay [5] addresses Human Axl (residues H473-A894 with Q764R) (Homo sapiens (Human), UniProt P30530, Q764R). The experiment in a line: Human AXL kinase assay (33P radiometric, KinaseProfiler). Type of assay: biochemical. Particulars: 10 μM ATP. The procedure: (§1) Kinase activity and compound inhibition were investigated using the ^33P-Phosphoryl transfer radiometric kinase assay, performed using the KinaseProfiler™ service of Eurofins Pharma Discovery Services UK Limited. Dose-response experiments were performed using nine compound concentrations in a 96-well microtiter plate. For each assay, all compounds were prepared to a 50× final assay concentration (50 μM) in 100% DMSO, then diluted in a half-log series, with the final top concentration at 1 μM. This working stock of the compound was added to the assay well as the first component in the reaction, followed by the remaining components as detailed in the following assay protocols below. The positive control wells (100% kinase activity) contain all components of the reaction including 2% DMSO (control for solvent effects), except the compound of interest. Blank wells contain all components of the reaction, with the reference inhibitor, staurosporine. This reference compound was used to abolish kinase activity and generated the 0% kinase activity base-line. IC50 values were calculated by nonlinear regression analysis using the sigmoidal dose-response (variable slope) curve fit on XLFit version 5.3 (ID Business Solutions).
Human Axl (residues H473-A894 with Q764R, 161 nM) was incubated with 8 mM MOPS pH 7.0, 0.2 mM EDTA, 250 μM KKSRGDYMTMQIG (SEO ID NO. 43) 10 mM magnesium acetate and 10 μM [γ-33P-ATP]. The reaction was initiated by the addition of the Mg/ATP mix. After incubation for 40 minutes at room temperature, the reaction was stopped by the addition of phosphoric acid to a concentration of 0.5%. A reaction aliquot of 10 μL was then spotted onto a P30 filtermat and washed four times for 4 minutes in 0.425% phosphoric acid and once in methanol prior to drying and scintillation counting. Incorporated ^33P was measured using the Wallac Microbeta scintillation counter (Perkin Elmer).

The target of assay [6] is Human Mer (residues R557-E882 with H628Q and R794A) (Homo sapiens (Human), UniProt Q12866). The assay can be described thus: Human Mer kinase assay (33P radiometric, KinaseProfiler). Type of assay: biochemical. Particulars: 10 μM ATP. The procedure: as §1
Human Mer (residues R557-E882 with H628Q and R794A, 0.7 nM) was incubated with 8 mM MOPS pH 7.0, 0.2 mM EDTA, 30 mM NaCl, 250 μM GGMEDIYFEFMGGKKK (SEO ID NO. 44). 10 mM magnesium acetate, and 10 μM [γ-^33P-ATP]. The reaction was initiated by the addition of the Mg/ATP mix. After incubation for 40 minutes at room temperature, the reaction was stopped by the addition of phosphoric acid to a concentration of 0.5%. A reaction aliquot of 10 μL was then spotted onto a P30 filtermat and washed four times for 4 minutes in 0.425% phosphoric acid and once in methanol prior to drying and scintillation counting. Incorporated ^33P was measured using the Wallac Microbeta scintillation counter (Perkin Elmer).

Assay [7] deals with Human Met (residues R974-S1390 with A1209G and V1290L) (Homo sapiens, UniProt P08581). The experiment in a line: Human Met kinase assay (33P radiometric, KinaseProfiler). It is filed as biochemical. Particulars: 10 μM ATP, read-out: c-Met IC50. The procedure:
as §1
Human Met (residues R974-S1390 with A1209G and V1290L, 3.4 nM) was incubated with 8 mM MOPS pH 7.0, 0.2 mM EDTA, 250 μM KKKGQEEEYVFIE (SEO ID NO. 45), 1 mM sodium orthovanadate, 5 mM […], 10 mM magnesium acetate, and 10 μM [γ-33P-ATP]. The reaction was initiated by the addition of the Mg/ATP mix. After incubation for 40 minutes at room temperature, the reaction was stopped by the addition of phosphoric acid to a concentration of 0.5%. A reaction aliquot of […] was then spotted onto a P30 filtermat and washed four times for 4 minutes in 0.425% phosphoric acid and once in methanol prior to drying and scintillation counting. Incorporated 33P was measured using the Wallac Microbeta scintillation counter (Perkin Elmer).

AXL, sequence (P30530 26-894): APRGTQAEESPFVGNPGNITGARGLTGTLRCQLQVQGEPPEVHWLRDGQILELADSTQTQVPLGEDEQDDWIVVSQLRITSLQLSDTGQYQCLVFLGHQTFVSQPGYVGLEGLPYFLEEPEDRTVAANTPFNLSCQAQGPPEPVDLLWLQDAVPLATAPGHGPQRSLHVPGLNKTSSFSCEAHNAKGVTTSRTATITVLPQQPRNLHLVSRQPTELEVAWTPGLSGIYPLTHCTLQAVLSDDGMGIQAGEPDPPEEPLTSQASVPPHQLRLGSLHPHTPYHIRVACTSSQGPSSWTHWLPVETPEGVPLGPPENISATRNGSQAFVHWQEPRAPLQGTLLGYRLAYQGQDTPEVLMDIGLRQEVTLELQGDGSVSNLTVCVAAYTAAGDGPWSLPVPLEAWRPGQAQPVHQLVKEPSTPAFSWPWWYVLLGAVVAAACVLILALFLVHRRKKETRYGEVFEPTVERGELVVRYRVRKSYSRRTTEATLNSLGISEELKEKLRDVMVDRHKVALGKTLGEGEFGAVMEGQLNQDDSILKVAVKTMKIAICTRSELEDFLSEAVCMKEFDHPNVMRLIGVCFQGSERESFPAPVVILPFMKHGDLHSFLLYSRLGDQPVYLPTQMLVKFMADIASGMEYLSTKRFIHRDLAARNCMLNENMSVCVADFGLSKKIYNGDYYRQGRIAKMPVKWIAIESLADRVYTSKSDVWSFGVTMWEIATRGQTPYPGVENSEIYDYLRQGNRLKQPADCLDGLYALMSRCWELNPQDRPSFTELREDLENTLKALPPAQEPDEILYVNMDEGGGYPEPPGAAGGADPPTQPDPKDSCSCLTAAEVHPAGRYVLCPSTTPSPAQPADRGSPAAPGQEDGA
Mer, sequence (Q12866 21-999): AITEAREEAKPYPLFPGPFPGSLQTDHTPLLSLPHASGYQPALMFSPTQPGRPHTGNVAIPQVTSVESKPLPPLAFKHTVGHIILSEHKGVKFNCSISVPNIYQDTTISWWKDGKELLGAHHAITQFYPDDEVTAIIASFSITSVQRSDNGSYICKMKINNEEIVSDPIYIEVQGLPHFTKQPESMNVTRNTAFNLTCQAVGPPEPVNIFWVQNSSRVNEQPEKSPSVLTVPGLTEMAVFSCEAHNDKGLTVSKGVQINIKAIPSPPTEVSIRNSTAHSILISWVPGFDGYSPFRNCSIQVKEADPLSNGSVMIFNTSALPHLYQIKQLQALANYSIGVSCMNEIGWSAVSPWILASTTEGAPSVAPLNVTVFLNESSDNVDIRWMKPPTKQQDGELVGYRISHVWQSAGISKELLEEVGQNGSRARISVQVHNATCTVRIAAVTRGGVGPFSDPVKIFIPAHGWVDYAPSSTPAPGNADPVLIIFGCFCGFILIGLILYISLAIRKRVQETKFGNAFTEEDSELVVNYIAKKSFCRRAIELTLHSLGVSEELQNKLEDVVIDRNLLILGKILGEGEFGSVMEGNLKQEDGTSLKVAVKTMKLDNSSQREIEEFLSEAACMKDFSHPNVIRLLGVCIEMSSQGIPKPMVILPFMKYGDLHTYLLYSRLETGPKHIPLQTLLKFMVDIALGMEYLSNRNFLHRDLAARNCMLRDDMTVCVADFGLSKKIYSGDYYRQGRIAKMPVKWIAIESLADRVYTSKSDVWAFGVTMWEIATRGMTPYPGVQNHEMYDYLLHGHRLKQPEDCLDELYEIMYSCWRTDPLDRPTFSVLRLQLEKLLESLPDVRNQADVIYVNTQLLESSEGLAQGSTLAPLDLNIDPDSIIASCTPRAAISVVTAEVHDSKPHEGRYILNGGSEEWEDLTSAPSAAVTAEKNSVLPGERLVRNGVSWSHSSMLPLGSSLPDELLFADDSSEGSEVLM
Human Mer (residues R557-E882 with H628Q and R794A), sequence (Q12866 557-882, stated change not applied): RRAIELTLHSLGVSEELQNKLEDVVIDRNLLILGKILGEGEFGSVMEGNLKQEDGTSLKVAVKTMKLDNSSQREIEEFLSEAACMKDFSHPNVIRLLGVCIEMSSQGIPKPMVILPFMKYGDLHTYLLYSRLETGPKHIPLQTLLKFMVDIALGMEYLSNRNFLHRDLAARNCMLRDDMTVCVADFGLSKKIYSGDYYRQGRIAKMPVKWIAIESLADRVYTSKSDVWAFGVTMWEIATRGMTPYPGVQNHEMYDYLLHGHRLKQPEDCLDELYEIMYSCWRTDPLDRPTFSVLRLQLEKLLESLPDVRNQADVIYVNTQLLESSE
Met, sequence (P08581 25-1390): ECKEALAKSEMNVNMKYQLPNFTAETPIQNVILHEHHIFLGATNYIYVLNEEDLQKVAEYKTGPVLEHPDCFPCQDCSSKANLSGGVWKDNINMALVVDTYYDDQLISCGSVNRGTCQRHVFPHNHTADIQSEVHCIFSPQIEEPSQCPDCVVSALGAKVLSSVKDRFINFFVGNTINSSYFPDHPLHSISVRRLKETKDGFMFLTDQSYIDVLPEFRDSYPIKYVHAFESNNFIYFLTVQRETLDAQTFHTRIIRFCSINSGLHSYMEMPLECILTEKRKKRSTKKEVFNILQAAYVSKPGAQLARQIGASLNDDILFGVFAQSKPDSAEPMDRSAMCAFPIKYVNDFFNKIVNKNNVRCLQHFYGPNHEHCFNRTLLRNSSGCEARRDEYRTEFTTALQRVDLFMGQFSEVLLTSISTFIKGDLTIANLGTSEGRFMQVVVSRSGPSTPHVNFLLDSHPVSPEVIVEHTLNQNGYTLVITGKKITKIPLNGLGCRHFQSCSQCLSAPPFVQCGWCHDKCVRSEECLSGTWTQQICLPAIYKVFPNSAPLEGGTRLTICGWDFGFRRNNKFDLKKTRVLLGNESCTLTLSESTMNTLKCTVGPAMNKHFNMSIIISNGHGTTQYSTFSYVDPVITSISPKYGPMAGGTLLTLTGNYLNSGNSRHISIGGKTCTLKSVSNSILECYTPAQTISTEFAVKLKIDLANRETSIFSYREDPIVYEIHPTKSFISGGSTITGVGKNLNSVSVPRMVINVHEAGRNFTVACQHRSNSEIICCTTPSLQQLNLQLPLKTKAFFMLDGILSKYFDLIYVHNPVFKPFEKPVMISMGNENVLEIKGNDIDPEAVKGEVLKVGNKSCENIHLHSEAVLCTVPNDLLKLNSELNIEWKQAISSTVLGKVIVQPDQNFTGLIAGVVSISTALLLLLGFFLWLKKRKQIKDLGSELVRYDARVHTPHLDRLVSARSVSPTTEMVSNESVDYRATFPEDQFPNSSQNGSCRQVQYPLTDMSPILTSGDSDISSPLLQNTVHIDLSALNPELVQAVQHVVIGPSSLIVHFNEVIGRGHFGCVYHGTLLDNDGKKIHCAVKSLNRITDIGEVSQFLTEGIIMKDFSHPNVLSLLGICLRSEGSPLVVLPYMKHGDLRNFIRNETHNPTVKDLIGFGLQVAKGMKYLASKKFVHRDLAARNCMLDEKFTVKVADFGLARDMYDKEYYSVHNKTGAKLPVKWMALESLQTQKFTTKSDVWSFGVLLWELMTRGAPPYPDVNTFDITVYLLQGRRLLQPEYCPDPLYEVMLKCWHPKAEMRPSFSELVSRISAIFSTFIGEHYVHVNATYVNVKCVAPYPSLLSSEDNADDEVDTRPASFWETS
KDR, sequence (P35968 20-1356): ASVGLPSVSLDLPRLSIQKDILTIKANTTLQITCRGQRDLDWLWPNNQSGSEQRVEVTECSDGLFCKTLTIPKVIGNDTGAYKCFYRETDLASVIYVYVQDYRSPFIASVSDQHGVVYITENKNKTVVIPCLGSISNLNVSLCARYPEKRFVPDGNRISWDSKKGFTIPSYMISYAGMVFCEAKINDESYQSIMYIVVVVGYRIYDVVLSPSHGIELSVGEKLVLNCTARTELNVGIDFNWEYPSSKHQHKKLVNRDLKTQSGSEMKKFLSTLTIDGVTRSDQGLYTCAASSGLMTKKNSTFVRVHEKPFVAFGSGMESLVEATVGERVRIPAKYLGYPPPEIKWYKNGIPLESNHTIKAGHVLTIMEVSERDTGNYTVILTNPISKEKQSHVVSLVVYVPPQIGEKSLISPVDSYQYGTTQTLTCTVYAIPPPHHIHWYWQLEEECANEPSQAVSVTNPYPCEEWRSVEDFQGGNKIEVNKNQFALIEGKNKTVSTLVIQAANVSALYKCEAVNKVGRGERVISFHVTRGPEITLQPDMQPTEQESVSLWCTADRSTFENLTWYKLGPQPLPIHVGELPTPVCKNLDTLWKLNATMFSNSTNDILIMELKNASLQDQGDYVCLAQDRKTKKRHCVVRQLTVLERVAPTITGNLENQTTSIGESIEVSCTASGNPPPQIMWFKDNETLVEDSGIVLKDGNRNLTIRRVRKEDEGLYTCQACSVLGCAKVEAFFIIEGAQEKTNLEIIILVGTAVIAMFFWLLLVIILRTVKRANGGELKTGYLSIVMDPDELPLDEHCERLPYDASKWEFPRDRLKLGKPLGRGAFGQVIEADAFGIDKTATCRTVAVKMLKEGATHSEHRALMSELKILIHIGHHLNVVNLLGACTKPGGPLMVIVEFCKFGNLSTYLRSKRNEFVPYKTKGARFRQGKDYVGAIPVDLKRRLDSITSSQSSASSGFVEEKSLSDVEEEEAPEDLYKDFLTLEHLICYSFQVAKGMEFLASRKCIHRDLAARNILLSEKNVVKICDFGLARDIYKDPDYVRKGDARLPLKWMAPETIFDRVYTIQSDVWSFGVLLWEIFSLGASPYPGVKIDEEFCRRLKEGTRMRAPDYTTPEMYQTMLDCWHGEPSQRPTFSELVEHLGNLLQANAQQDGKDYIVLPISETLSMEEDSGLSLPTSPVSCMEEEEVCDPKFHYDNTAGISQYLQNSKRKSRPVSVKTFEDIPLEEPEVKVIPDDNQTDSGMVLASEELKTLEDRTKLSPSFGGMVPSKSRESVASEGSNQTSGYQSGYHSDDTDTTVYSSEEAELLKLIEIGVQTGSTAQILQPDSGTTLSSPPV

`COc1cc2nccc(Oc3ccc(NC(=O)C4(C(=O)Nc5ccc(F)cc5)CC4)cc3)c2cc1P(C)(C)=O` [Compound 51, 1-N-[4-(6-Dimethylphosphoryl-7-methoxyquinolin-4-yl)oxyphenyl]-1-N′-(4-fluorophenyl)cyclopropane-1,1-dicarboxamide]: the IC50 was 10 to 100 nM in assay [1], 100 to 300 nM in assay [2], 10 to 100 nM in assay [3] and 100 to 300 nM in assay [4].

Regarding `COc1cc2nccc(Oc3ccc(NC(=O)C4(C(=O)Nc5ccc(F)cc5)CC4)cc3)c2cc1C(=O)NOCC(O)CO` (single isomer, unassigned) [Compound 30, 1-N-[4-[6-(2,3-dihydroxypropoxycarbamoyl)-7-methoxyquinolin-4-yl]oxyphenyl]-1-N′-(4-fluorophenyl)cyclopropane-1,1-dicarboxamide], the IC50 was 100 to 300 nM in assay [1], over 300 nM in assay [2], 100 to 300 nM in assay [3] and 10 to 100 nM in assay [4].

On to `CNC(=O)c1cc2c(Oc3ccc(NC(=O)C4(C(=O)Nc5ccc(F)cc5OC)CC4)cc3F)ccnc2cc1OC` [Compound 268, 1-N-[3-Fluoro-4-[7-methoxy-6-(methylcarbamoyl)quinolin-4-yl]oxyphenyl]-1-N′-(4-fluoro-2-methoxyphenyl)cyclopropane-1,1-dicarboxamide], for which the IC50 is at most 10 nM in assay [1], 10 to 100 nM in assay [2], 10 to 100 nM in assay [3] and at most 10 nM in assay [4].

As to `CO/N=C/c1ccc2c(Oc3ccc(NC(=O)C4(C(=O)Nc5ccc(F)cc5)CC4)cc3)ccnc2c1` [Compound 278, 1-N′-(4-Fluorophenyl)-1-N-[4-[7-[(E)-methoxyiminomethyl]quinolin-4-yl]oxyphenyl]cyclopropane-1,1-dicarboxamide], the half-maximal inhibitory concentration (IC50) in assay [1], in assay [2], in assay [3] and in assay [4] was 100 to 300 nM in each case.

Consider `O=C(NOCCO)c1ccc2c(Oc3cc(F)c(NC(=O)C4(C(=O)Nc5ccc(F)cc5)CC4)cc3F)ccnc2c1` [Compound 302, 1-N′-[2,5-Difluoro-4-[7-(2-hydroxyethoxycarbamoyl)quinolin-4-yl]oxyphenyl]-1-N-(4-fluorophenyl)cyclopropane-1,1-dicarboxamide], for which the IC50 in assay [1] is 10 to 100 nM; in assay [2], 100 to 300 nM; in assay [3], at most 10 nM; in assay [4] it was 100 to 300 nM.

For the compound `CNS(=O)(=O)c1cc2c(Oc3ccc(NC(=O)C4(C(=O)Nc5ccc(F)cc5)CC4)cc3)ccnc2cc1OC` [Compound 207, 1-N′-(4-Fluorophenyl)-1-N-[4-[7-methoxy-6-(methylsulfamoyl)quinolin-4-yl]oxyphenyl]cyclopropane-1,1-dicarboxamide], the IC50 in assay [1], in assay [2], in assay [3] and in assay [4] was 10 to 100 nM in each case.

In the case of `CCNS(=O)(=O)c1cc2c(Oc3ccc(NC(=O)C4(C(=O)Nc5ccc(F)cc5)CC4)cc3)ccnc2cc1OC` [Compound 208, 1-N-[4-[6-(Ethylsulfamoyl)-7-methoxyquinolin-4-yl]oxyphenyl]-1-N′-(4-fluorophenyl)cyclopropane-1,1-dicarboxamide], the half-maximal inhibitory concentration (IC50) in assay [1], in assay [2], in assay [3] and in assay [4] was 10 to 100 nM each time.

Consider `COc1cc2nccc(Oc3ccc(NC(=O)C4(C(=O)Nc5ccc(F)cc5)CC4)cc3)c2cc1C(=O)O` [Compound 6, 4-[4-[[1-[(4-fluorophenyl)carbamoyl]-cyclopropanecarbonyl]amino]-phenoxy]-7-methoxyquinoline-6-carboxylic acid], for which the concentration for half-maximal inhibition (IC50) in assay [5] is 100 to 1000 nM; in assay [6], 10 to 100 nM; in assay [7], at most 10 nM; in assay [3] it was over 300 nM; in assay [4], over 300 nM.

Consider `COc1cc2nccc(Oc3ccc(NC(=O)C4(C(=O)Nc5ccc(F)cc5)CC4)cc3)c2cc1C(=O)NCCN(C)C` [Compound 10, 1-N-[4-[6-[2-(dimethylamino)ethylcarbamoyl]-7-methoxyquinolin-4-yl]oxyphenyl]-1-N′-(4-fluorophenyl)cyclopropane-1,1-dicarboxamide], for which the IC50 was 10 to 100 nM in assay [5], at most 10 nM in assay [6] and at most 10 nM in assay [7].

`NC(=O)c1cc2c(Oc3ccc(NC(=O)C4(C(=O)Nc5ccc(F)cc5)CC4)cc3)ccnc2cc1Br` [Compound 69, 1-N-[4-(7-bromo-6-carbamoylquinolin-4-yl)oxyphenyl]-1-N′-(4-fluorophenyl)cyclopropane-1,1-dicarboxamide]: the IC50 in assay [5] lay within 100 to 1000 nM; in assay [6], 10 to 100 nM; in assay [7], 10 to 100 nM.

Regarding `COc1cc2c(Oc3ccc(NC(=O)C4(C(=O)Nc5ccc(F)cc5)CC4)cc3)ccnc2cc1C(=O)O` [Compound 151, 4-[4-[[1-[(4-fluorophenyl)carbamoyl]cyclopropanecarbonyl]amino]phenoxy]-6-methoxyquinoline-7-carboxylic acid], the IC50 in assay [5] was 100 to 1000 nM; in assay [6], 10 to 100 nM; in assay [7], 10 to 100 nM; in assay [4], over 300 nM.

Usually IC50 stands for the concentration at which inhibition is half-maximal.
